Experimental findings from paper PMC3820677 (PLoS ONE, 2013) are described below.

This test addresses mKv1.3 (Mus musculus, UniProt P16390). The test can be described thus: cell-based.

Chain of mKv1.3 (P16390 whole entry): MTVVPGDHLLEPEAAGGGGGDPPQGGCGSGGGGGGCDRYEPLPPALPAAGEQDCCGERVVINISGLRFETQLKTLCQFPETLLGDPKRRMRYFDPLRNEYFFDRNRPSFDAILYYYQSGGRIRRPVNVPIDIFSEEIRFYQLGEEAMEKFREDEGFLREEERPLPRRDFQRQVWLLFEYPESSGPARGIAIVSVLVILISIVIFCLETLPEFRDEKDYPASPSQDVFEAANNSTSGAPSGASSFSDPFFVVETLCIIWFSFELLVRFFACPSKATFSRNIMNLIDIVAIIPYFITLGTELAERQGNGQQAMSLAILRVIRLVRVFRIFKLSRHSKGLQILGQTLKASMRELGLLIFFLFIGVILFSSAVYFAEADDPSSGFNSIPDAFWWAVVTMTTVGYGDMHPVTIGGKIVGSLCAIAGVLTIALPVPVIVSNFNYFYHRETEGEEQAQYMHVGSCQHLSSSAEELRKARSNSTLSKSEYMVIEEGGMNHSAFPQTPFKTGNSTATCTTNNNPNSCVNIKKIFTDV

Broadly, the IC50 is the concentration that gives 50% inhibition. A low value points to greater potency in that assay. `CC[C@H](C)[C@@H]1NC(=O)[C@@H](NC(=O)[C@H](CO)NC(=O)[C@@H](N)CCCNC(=N)N)CSSC[C@@H](C(=O)O)NC(=O)[C@H]([C@@H](C)O)NC(=O)CNC(=O)[C@@H]2CSSC[C@@H]3NC(=O)[C@H](CCC(N)=O)NC(=O)[C@H](Cc4ccccc4)NC(=O)[C@H](C)NC(=O)[C@H]([C@@H](C)O)NC(=O)[C@H](CSSC[C@H](NC(=O)[C@H](Cc4ccccc4)NC(=O)[C@H](CO)NC(=O)[C@H](CC(C)C)NC(=O)[C@H](CCCNC(=N)N)NC(=O)[C@H](Cc4ccc(O)cc4)NC(=O)[C@H](CCCCN)NC(=O)[C@H](CCSC)NC(=O)[C@H](CO)NC(=O)[C@H](Cc4cnc[nH]4)NC(=O)[C@H](CCCCN)NC3=O)C(=O)N[C@@H](CCCNC(=N)N)C(=O)N[C@@H](CCCCN)C(=O)N[C@@H]([C@@H](C)O)C(=O)N2)NC(=O)[C@H](CCCNC(=N)N)NC(=O)[C@H](CO)NC(=O)[C@H](CCCCN)NC(=O)[C@@H]2CCCN2C(=O)[C@H]([C@@H](C)CC)NC(=O)[C@H]([C@@H](C)O)NC(=O)[C@H](CC(=O)O)NC1=O` [ShK] gave an IC50 of 9.3 ± 2 pM.
